Experimental data published in patent US8455491B2, “6-cycloamino-3-(pyridazin-4-yl)imidazo[1,2-b]pyridazine and derivatives and pharmaceutical compositions comprising the same” (Sanofi, priority 2007, dated 2013).

Key:
[1] = test system: Mper1-luc Rat-1 (P2C4) fibroblasts; test: Circadian cell assay (mPer1-luciferase reporter, period prolongation); assay type: cell-based; conditions: effective concentration that induced a 1-hour prolongation of the circadian period, interpolated from hyperbolic curve
Procedure: Experimental Protocols for Circadian Cell Assay
Mper1-luc Rat-1 (P2C4) fibroblast cultures were prepared by dividing the cultures every 3-4 days (approximately 10-20% of confluence) on 150 cm^2 degassed polystyrene tissue culture flasks (Falcon® #35-5001) and maintained in growth medium [EMEM (Cellgro #10-010-CV); 10% fetal bovine serum (FBS; Gibco #16000-044); and 50 I.U./ml of penicillin-streptomycin (Cellgro #30-001-CI)] at 37° C. and under 5% CO2.
Cells obtained from Rat-1 fibroblast cultures at 30-50% of confluence as described above were co-transfected with vectors containing the selection marker for resistance to zeocin for a stable transfection and a luciferase reporter gene controlled by the mPer-1 promoter. After 24 to 48 hours, the cultures were divided on 96-well plates and maintained in growth medium supplemented with 50-100 μg/ml of zeocin (Invitrogen® #45-0430) for 10-14 days. The zeocin-resistant stable transfectants were evaluated for the expression of the reporter by adding 100 μM lucerfin (Promega® #E1603®) to the growth medium and by assaying the luciferase activity on a TopCount® scintillation counter (Packard Model #C384V00). The Rat-1 cell clones expressing both zeocin resistance and lucerifase activity controlled by mPer1 were serum-shock synchronized with 50% horse serum [HS (Gibco® #16050-122)] and the activity of the circadian reporter was evaluated. The P2C4 clone of Mper1-luc Rat-1 fibroblasts was selected to test the compound.
Mper1-luc Rat-1 (P2C4) fibroblasts at 40-50% of confluence, obtained according to the protocol described above, were plated out onto 96-well opaque tissue culture plates (Perkin Elmer® #6005680). The cultures are maintained in growth medium supplemented with 100 μg/ml of zeocin (Invitrogen #45-0430) until they reach 100% of confluence (48-72 h). The cultures were then synchronized with 100 μl of synchronization medium [EMEM (Cellgro #10-010-CV); 100 I.U./ml of penicillin-streptomycin (Cellgro #30-001-C1); 50% HS (Gibco #16050-122)] for 2 hours at 37° C. and under 5% CO2. After synchronization, the cultures were rinsed with 100 μl of EMEM (Cellgro #10-010-CV) for 10 minutes at ambient temperature. […]
The period analysis was performed either by determining the interval between the relative light emission minima over several days or by Fourier transform. […] The data were analyzed by adjusting a hyperbolic curve to the data expressed as change of period (y-axis) as a function of the concentration of the test compound (x-axis) in the XLfit™ software and the CE Delta (t+1 h) was interpolated from this curve.

[2] = molecular target: T1, casein kinase 1 epsilon (CK1 epsilon) (Homo sapiens, UniProt P49674); test: Filter-plate assay of ATP-33P, inhibition of casein phosphorylation by CK1 epsilon; assay type: biochemical; conditions: casein substrate, ATP 10 μM, 2 hours at ambient temperature
T1 construct: Invitrogen Corporation (named as alternative)
T1 sequence (P49674 whole entry): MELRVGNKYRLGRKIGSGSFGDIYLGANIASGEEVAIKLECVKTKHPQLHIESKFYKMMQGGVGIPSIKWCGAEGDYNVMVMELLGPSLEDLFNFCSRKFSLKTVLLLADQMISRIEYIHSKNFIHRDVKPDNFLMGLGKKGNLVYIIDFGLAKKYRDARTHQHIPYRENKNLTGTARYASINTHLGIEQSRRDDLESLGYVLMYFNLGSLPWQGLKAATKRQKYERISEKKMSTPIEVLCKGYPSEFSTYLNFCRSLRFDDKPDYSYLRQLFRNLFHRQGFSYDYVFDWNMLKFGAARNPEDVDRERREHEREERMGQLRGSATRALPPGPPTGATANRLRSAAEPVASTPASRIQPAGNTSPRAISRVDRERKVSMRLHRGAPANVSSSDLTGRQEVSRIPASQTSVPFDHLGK
Procedure: The capacity of the compounds of the invention to inhibit the phosphorylation of casein by casein kinase 1 epsilon and delta may be evaluated according to the procedure described in US 2005/0131012.
Filter-Plate Assay of ATP-^33P for the Screening of CK1 Epsilon Inhibitors:
The effect of the compounds on inhibition of the phosphorylation of casein by the enzyme casein kinase 1 epsilon (CK1 epsilon) is measured, using a casein assay with filtration of ATP-^33P in vitro.
Casein kinase 1 epsilon (0.58 mg/ml) is obtained via fermentation and purification processes performed according to methods that are well known to those skilled in the art, or may also be obtained from Invitrogen Corporation™ (human CK1 epsilon).
The compounds are tested at five different concentrations so as to generate IC50 values, i.e. the concentration at which a compound is capable of inhibiting the enzymatic activity by 50%, or alternatively the percentage of inhibition at a concentration of 10 micromolar.
“U”-bottomed Falcon plates are prepared by placing 5 μL of solutions of the compounds according to the invention at concentrations of 10, 1, 0.1, 0.01 or 0.001 μM in various wells. The solutions of the compounds according to the invention at these various concentrations are prepared by diluting in a test buffer (50 mM Tris, pH 7.5, […], 2 mM DTT and 1 mM EGTA) a stock solution in DMSO at a concentration of 10 mM. Next, 5 μL of dephosphorylated casein are added to a final concentration of 0.2 μg/μL, 20 μl of CK1 epsilon to a final concentration of 3 ng/μl, and 20 μl of ATP-^33P to a final concentration of 0.02 μCi/μl mixed with cold ATP (10 μM final—approximately 2×10^6 CPM per well). The final total test volume per well is equal to 50 μl.
The “U”-bottomed Falcon® test plate mentioned above is vortexed, and then incubated at ambient temperature for 2 hours. After 2 hours, the reaction is stopped by adding an ice-cold solution of 65 μl of ATP (2 mM) prepared in test buffer.
100 μl of the reaction mixture are then transferred from the “U”-bottomed Falcon® plate into Millipore® MAPH filter plates, preimpregnated with 25 μl of ice-cold 100% TCA. […]
The plates are left to dry overnight at ambient temperature. […] The radiation emitted by each well is then measured for 2 minutes in a Packard® Topcount NXT scintillation counter, in which the values of CPM/well are measured.
The percentage inhibition of the capacity of the enzyme to phosphorylate the substrate (casein) is determined for each concentration of compound tested. These inhibition data expressed as percentages are used to calculate the IC50 value for each compound compared with the controls.
The kinetic studies determined the KM value for ATP as being 21 μM in this test system.

IC50 [2]: 16 to 33 nM
melting point: 232 to 233 °C
SMILES: CN1CCN(c2ccc3nc(-c4ccc(F)cc4)c(-c4ccnnc4)n3n2)CC1 [compound 5, 2-(4-fluorophenyl)-6-(4-methylpiperazin-1-yl)-3-pyridazin-4-yl-imidazo[1,2-b]pyridazine]
CE Delta (t + 1 h) [1]: 5 nM
